“And” between values parts separate entries of the source, which are not always exact repeats. Equal values may be shown once. Read-outs that look alike come from different tables or passages of the source.
How the values were obtained:
[1] = cited from earlier work; for Log Pow: previously determined
[2] = tested on: human ovarian carcinoma cisplatin-sensitive A2780; parameters: method as in PMID 31441186; conditions: previously determined on the same cell line; cited from earlier work
[3] = tested on: human ovarian carcinoma cisplatin-resistant A2780cisR; experiment: Cytotoxicity, WST-1 cell viability assay, A2780cisR; format: cell-based; conditions: 72 h exposure
Method: (§1) In vitro cytotoxicity investigations were carried out by using human ovarian carcinoma cisplatin-sensitive A2780 (ECACC93112519), human ovarian carcinoma cisplatin-resistant A2780cisR (ECACC 93112517) and mouse embryo fibroblasts Balb/3T3 clone A31 (ATCC CCL-163) cell lines. A2780 and A2780cisR were purchased from the European Collection of Authenticated Cell Cultures (ECACC), and Balb/3T3 clone A31 cell line from the American Type Culture Collection (ATCC).
(§2) A2780 and A2780cisR cells were routinely cultured in RPMI 1640 (Merck) containing 2 mM of L-glutamine (Merck), 1% of penicillin/streptomycin solution (Merck—10 000 U mL^−1: 10 mg mL^−1), 10% of fetal bovine serum (Merck—FBS) and antimycotic (InvivoGen, USA), and Balb/3T3 clone A31 in Dulbecco’s modified Eagle medium (Merck—DMEM) supplemented with 4 mM of L-glutamine, 1% of penicillin/streptomycin solution, 10% of calf serum (Merck) and antimycotic. […] The cultures were maintained at 37 °C and in a 5% CO2-enriched atmosphere.
(§3) A2780, A2780cisR and Balb/3T3 clone A31 cells were seeded in 96-well tissue culture polystyrene plates at a concentration of 3 × 10^3, 6 × 10^3 and 1 × 10^3 cells per well, respectively. After overnight incubation, the cells were treated with different concentrations (0–100 µM) of the selected compounds for 72 h at 37 °C in a 5% atmosphere of CO2. Stock solutions of compounds were prepared in DMSO and sequentially diluted in medium (final DMSO concentration of 0.5%). […] At the end of the incubation time, cell viability was assessed by means of WST-1 tetrazolium salt reagent (Roche). Briefly, cells were incubated for 4 h with the tetrazolium salt reagent diluted 1:10, at 37 °C and 5% CO2. Measurements of formazan dye absorbance, which directly correlates with the number of viable cells, were carried out with a micro-plate reader (Biorad) at 450 nm, using 655 nm as reference wavelength. The 50% inhibitory concentration (IC50) refers to compound concentration at which 50% of cell death is observed with respect to the control. For each tested compound, assay was performed on triplicate. The concentration effect curves were generated by nonlinear regression curves (GraphPad Prism Software, 2021) and the data reported as mean ± standard deviation.

[4] = tested on: human ovarian carcinoma cisplatin-sensitive A2780; experiment: Cytotoxicity, WST-1 cell viability assay, A2780; format: cell-based; conditions: for IC50: 72 h exposure; for Selectivity index (S.I.): ratio between IC50 for Balb/3T3 and IC50 for A2780
Method: as §1, §2, §3

[5] = tested on: mouse embryo fibroblasts Balb/3T3 clone A31; experiment: Cytotoxicity, WST-1 cell viability assay, Balb/3T3 clone A31; format: cell-based; conditions: 72 h exposure
Method: as §1, §2, §3

[6] = Stability in DMSO-d6/D2O or D2O solution at 37 °C for 72 h (1H NMR); format: physicochemical; conditions: 72 h at 37 °C
Method: (§4) • (a) Solubility in D2O. A suspension of the selected diiron compound (3–5 mg) in a D2O solution (ca. 1 mL) containing Me2SO2 (3.36 × 10^−3 M) as internal standard was vigorously stirred at 21 °C for 1.5 h. The resulting saturated solution was filtered over celite, transferred into an NMR tube and then analyzed by ^1H NMR spectroscopy (delay time = 3 s; number of scans = 20). The concentration (solubility) was calculated by the relative integral (related to Cp and/or NMe signals) with respect to Me2SO2 (δ = 3.14 ppm). • (b) Stability in DMSO-d6/D2O solution. The selected diiron compound (ca. 4 mg) was added of 1 mL of D2O (3a,c) or DMSO-d6/D2O (2:1 v/v) mixture (2a,c, 3b, 4a–c, 5a–c, 6a–c, 7), containing Me2SO2 (3.36 × 10^−3 M). The resulting mixture was stirred for 30 min and then filtered over celite; the filtrated solution was transferred into an NMR tube. The sample was analyzed by ^1H NMR (time = 0) and then heated at 37 °C for 72 h. After cooling to room temperature, the solution was separated from a small amount of solid by filtration over celite, and the new ^1H NMR spectrum was recorded (delay time = 3 s; number of scans = 20). In every case, no newly formed organometallic species was detected. The amount of starting material in solution (% with respect to the initial spectrum) was calculated by the relative integral (vs. Cp and/or NMe signals) with respect to Me2SO2 as internal standard.

[7] = Solubility in D2O by 1H NMR (Me2SO2 internal standard); format: physicochemical; conditions: for Solubility: 21 °C
Method: as §4

[8] = Octanol–water partition coefficient (shake-flask, UV–Vis); format: physicochemical; conditions: 21 °C
Method: • (c) Octanol–water partition coefficients (Log Pow). Partition coefficients (Pow; IUPAC: KD partition constant), defined as Pow = corg/caq, where corg and caq are molar concentrations of the selected compound in the organic and aqueous phase, respectively, were determined by the shake-flask method and UV–Vis measurements. Deionized water and 1-octanol were vigorously stirred for 24 h to enable saturation of both phases, then separated by centrifugation. A stock solution of the selected diiron compound (ca. 2 mg; 2a–c, 3b, 4a–c, 5a, 5c, 6b,c, 7) was prepared by first adding acetone (50 μL, to help solubilization), followed by water-saturated octanol (2.5 mL). The solution was diluted with water-saturated octanol (ca. 1:3 v/v ratio, cFe2 ≈ 10^−4 M, so that 1.5 ≤ A ≤ 2.0 at λmax) and the UV–Vis spectrum was recorded (A^0org). An aliquot of the solution (Vorg = 1.2 mL) was transferred into a test tube and octanol-saturated water (Vorg = Vaq = 1.2 mL) was added. The mixture was vigorously stirred for 15 min at 21 °C and then centrifuged (5000 rpm, 10 min). The UV–Vis spectrum of the organic phase was recorded (A^forg) and the partition coefficient was calculated as Pow = A^forg/(A^0org − A^forg), where A^0org and A^forg are the absorbance in the organic phase before and after partition with the aqueous phase, respectively. An inverse procedure was followed for 3a, 3c, 5b and 6a, starting from a solution of the compound in octanol-saturated water. The partition coefficient was calculated as Pow = (A^0aq − A^faq)/A^faq where A^0aq and A^faq are the absorbance in the aqueous phase before and after partition with the organic phase, respectively. The wavelength of the maximum absorption of each compound (ca. 300 nm) was used for UV–Vis quantitation. The procedure was repeated three times for each sample (from the same stock solution); results are given as mean ± standard deviation.

O=C1C=CC(=O)c2ccccc21 [Naphthoquinone]
Log P ([1]; literature value): 1.71

CC1=[C](C)[Fe+]2(=[C]=O)[C](=O)[Fe+]2[C]1=[N+](C)c1c(C)cccc1C.O=S(=O)([O-])C(F)(F)F.c1cc[cH-]c1.c1cc[cH-]c1 (stereo not shown) [[Fe2Cp2(CO)(μ-CO){μ-η^1:η^3-C^3(Me)C^2(Me)C^1NMe(Xyl)}]CF3SO3]
Log Pow [1]: 0.0 | IC50 [2]: 0.5 ± 0.06 µM

Cc1cccc(C)c1[N+](C)=[C]1C=[C](c2ccccc2)[Fe+]2(=[C]=O)[C](=O)[Fe+]12.O=S(=O)([O-])C(F)(F)F.c1cc[cH-]c1.c1cc[cH-]c1 (stereo not shown) [[Fe2Cp2(CO)(μ-CO){μ-η^1:η^3-C^3(Ph)C^2HC^1NMe(Xyl)}]CF3SO3]
Log Pow [1]: 0.4 | IC50 [2]: 0.9 ± 0.06 µM

N.N.[Cl][Pt][Cl] [cisplatin, reference compound]
IC50 [3]: 26 ± 3 µM | IC50 [4]: 0.4 ± 0.07 µM | IC50 [5]: 0.8 ± 0.2 µM

[Fe2Cp2(CO)(μ-CO){μ-η^1:η^3-C^3(Et)C^2(Et)C^1NMe(CH2Ph)}]CF3SO3 [Compound 5c]
IC50 [4]: 3.75 ± 0.14 µM | Selectivity index (S.I.) [4]: 24 | Stability % (residual % of starting material) ([6]; DMSO-d6/D2O (2:1 v/v)): 84% | IC50 [5]: 90 ± 8 µM | Solubility [7]: 1.10 × 10^−3 mol·L^−1 and 0.73 g·L^−1 | Log Pow [8]: 0.13 ± 0.01

[Fe2Cp2(CO)(μ-CO){μ-η^1:η^3-C^3(Me)C^2(Me)C^1NMe(CH2CH = CH2)}]CF3SO3 [Compound 3c]
IC50 [4]: ~17 µM and 17 µM | Selectivity index (S.I.) [4]: >5.9 | Stability % (residual % of starting material) ([6]; neat D2O): 85 ^a % | IC50 [5]: > 100 µM | Solubility [7]: 6.89 × 10^−3 mol·L^−1 and 4.02 g·L^−1 | Log Pow [8]: −0.77 ± 0.01

[Fe2Cp2(CO)(μ-CO){μ-η^1:η^3-C^3(Me)C^2HC^1N(CH2Ph)2}]CF3SO3 [Compound 2a]
IC50 [4]: 2 ± 0.7 µM | Selectivity index (S.I.) [4]: 7 | Stability % (residual % of starting material) ([6]; DMSO-d6/D2O (2:1 v/v)): 81% | IC50 [5]: 14 ± 4 µM | Log Pow [8]: 0.45 ± 0.04

[Fe2Cp2(CO)(μ-CO){μ-η^1:η^3-C^3(Me)C^2HC^1NMe2}]CF3SO3
Log Pow [1]: −0.3 | IC50 [2]: 35 ± 3 µM

[Fe2Cp2(CO)(μ-CO){μ-η^1:η^3-C^3(Me)C^2HC^1NMe(4-C6H4OMe)}]CF3SO3 [Compound 6a]
IC50 [4]: 3.5 ± 0.5 µM | Selectivity index (S.I.) [4]: 27 | Stability % (residual % of starting material) ([6]; DMSO-d6/D2O (2:1 v/v)): 94% | IC50 [5]: 94 ± 4 µM | Solubility [7]: 2.22 × 10^−3 mol·L^−1 and 1.41 g·L^−1 | Log Pow [8]: −0.46 ± 0.01

[Fe2Cp2(CO)(μ-CO){μ-η^1:η^3-C^3(Me)C^2HC^1NMe(CH2CH = CH2)}]CF3SO3 [Compound 3a]
IC50 [4]: 17.7 ± 0.8 µM | Selectivity index (S.I.) [4]: >5.6 | Stability % (residual % of starting material) ([6]; neat D2O): 93 ^a % | IC50 [5]: > 100 µM | Solubility [7]: 6.43 × 10^−3 mol·L^−1 and 3.66 g·L^−1 | Log Pow [8]: −0.75 ± 0.01

[Fe2Cp2(CO)(μ-CO){μ-η^1:η^3-C^3(Me)C^2HC^1NMe(CH2Ph)}]CF3SO3 [Compound 5a]
IC50 [4]: 7.1 ± 0.4 µM | Selectivity index (S.I.) [4]: >14 | Stability % (residual % of starting material) ([6]; DMSO-d6/D2O (2:1 v/v)): 85% | IC50 [5]: > 100 µM | Log Pow [8]: −0.26 ± 0.01

[Fe2Cp2(CO)(μ-CO){μ-η^1:η^3-C^3(Ph)C^2HC^1N(CH2Ph)2}]CF3SO3 [Compound 2b]
Solubility in D2O (in words) [7]: almost insoluble in D2O | Log Pow [8]: 1.4 and 1.4 ± 0.2

[Fe2Cp2(CO)(μ-CO){μ-η^1:η^3-C^3(Ph)C^2HC^1NMe(Cy)}]CF3SO3 [Compound 4b]
IC50 [4]: 2.6 ± 0.3 µM | Selectivity index (S.I.) [4]: 13 | Stability % (residual % of starting material) ([6]; DMSO-d6/D2O (2:1 v/v)): 65% | IC50 [5]: 35 ± 3 µM | Solubility [7]: 1.52 × 10^−3 mol·L^−1 and 1.02 g·L^−1 | Log Pow [8]: 0.41 ± 0.02

— paper PMC8398472, “Anticancer Diiron Vinyliminium Complexes: A Structure–Activity Relationship Study” (Pharmaceutics, 2021)
